{
  "source": "paper PMC8748916",
  "about": "“Microbial enzymes induce colitis by reactivating triclosan in the mouse gastrointestinal tract” (Nature Communications, 2022)",
  "key": {"[1]": {"details": "cited from earlier work"}, "[2]": {"test": "LC-MS/MS profiling of TCS metabolism in mice (TCS via diet for 4 weeks)", "details": "for concentration of free TCS in the colon digesta: mean; for concentration of TCS, TCS-G, TCS-Sulfate: individual mice"}, "[3]": {"parameters": "method as in earlier work", "details": "human, ref 32,33 (reply to reviewers), cited from earlier work"}},
  "note": "“And” between values parts separate entries of the source, which are not always exact repeats. Identical values can stand only once.",
  "data": [
    {"compound": "Oc1cc(Cl)ccc1Oc1ccc(Cl)cc1Cl", "note": "[TCS, Triclosan]", "values": [
      {"measurement": "No-Observed-Adverse-Effect Level (NOAEL)", "setting": "[1]; ref 36 (reply to reviewers)", "result": "25 to 40", "unit": "mg/kg/day"},
      {"measurement": "calculated Acceptable Daily Intake (ADI)", "setting": "[1]; ref 37 (reply to reviewers)", "result": "0.25 to 0.4", "unit": "mg/kg/day"},
      {"measurement": "concentration of free TCS in the colon digesta", "setting": "[2]; 1 ppm TCS in diet 4 weeks", "result": 1.5, "unit": "pmol/mg tissue"},
      {"measurement": "concentration of free TCS in the colon digesta", "setting": "[2]; 10 ppm TCS in diet 4 weeks", "result": 14.7, "unit": "pmol/mg tissue"},
      {"measurement": "concentration of free TCS in the colon digesta", "setting": "[2]; 80 ppm TCS in diet 4 weeks", "result": 92.2, "unit": "pmol/mg tissue"},
      {"measurement": "concentration of TCS, TCS-G, TCS-Sulfate", "setting": "[2]; Cecum (digesta), 80 ppm TCS via diet 4 weeks", "result": "109.26 pmol/mg and 94.56 pmol/mg and 76.97 pmol/mg"},
      {"measurement": "concentration of TCS, TCS-G, TCS-Sulfate", "setting": "[2]; Feces, 10 ppm TCS in diet 4 weeks", "result": "22.61 pmol/mg and 75.8 pmol/mg"},
      {"measurement": "concentration of TCS, TCS-G, TCS-Sulfate", "setting": "[2]; Feces, 80 ppm TCS in diet 4 weeks", "result": "290.88 pmol/mg and 142.03 pmol/mg"},
      {"measurement": "concentration of TCS, TCS-G, TCS-Sulfate", "setting": "[2]; Heart, 80 ppm TCS via diet 4 weeks", "result": "0.98 pmol/mg and 0.71 pmol/mg and 0.63 pmol/mg"},
      {"measurement": "concentration of TCS, TCS-G, TCS-Sulfate", "setting": "[2]; SI 1st section (digesta), 80 ppm TCS via diet 4 weeks", "result": "15.09 pmol/mg and 9.94 pmol/mg and 15.65 pmol/mg and 19.61 pmol/mg"},
      {"measurement": "concentration of TCS, TCS-G, TCS-Sulfate", "setting": "[2]; SI 2nd section (digesta), 80 ppm TCS via diet 4 weeks", "result": "19.75 pmol/mg and 18.37 pmol/mg and 9.51 pmol/mg and 14.12 pmol/mg and 15.69 pmol/mg and 13.92 pmol/mg and 18.94 pmol/mg and 9.21 pmol/mg and 13.42 pmol/mg and 3.48 pmol/mg"},
      {"measurement": "concentration of TCS, TCS-G, TCS-Sulfate", "setting": "[2]; SI 3rd section (digesta), 80 ppm TCS via diet 4 weeks", "result": "29.24 pmol/mg and 24.80 pmol/mg and 7.10 pmol/mg and 13.01 pmol/mg and 17.21 pmol/mg and 23.02 pmol/mg and 19.18 pmol/mg and 15.52 pmol/mg and 17.98 pmol/mg and 27.55 pmol/mg"},
      {"measurement": "concentration of TCS, TCS-G, TCS-Sulfate", "setting": "[2]; SI 4th section (digesta), 80 ppm TCS via diet 4 weeks", "result": "31.18 pmol/mg and 38.07 pmol/mg and 17.93 pmol/mg and 37.99 pmol/mg and 55.42 pmol/mg and 35.20 pmol/mg and 31.30 pmol/mg and 21.74 pmol/mg and 18.77 pmol/mg and 46.26 pmol/mg"},
      {"measurement": "share of TCS metabolites found", "setting": "[2]; digesta of the 4th section of the mouse small intestine, 80 ppm TCS via diet 4 weeks", "result": 36.9, "unit": "%"},
      {"measurement": "share of TCS metabolites found", "setting": "[2]; fecal content, 80 ppm TCS via diet 4 weeks", "result": 99.1, "unit": "%"},
      {"measurement": "share of detected TCS species present as free TCS", "setting": "[2]; gut sections (colon digesta, cecum digesta, feces), 1, 10 and 80 ppm TCS via diet 4 weeks", "result": "94-100%"},
      {"measurement": "plasma concentrations of TCS (TCS plus TCS-G)", "setting": "[3]; after weeks of daily use of TCS-containing toothpaste", "result": "90–1,000 nM"},
      {"measurement": "plasma concentrations of TCS (TCS plus TCS-G), baseline", "setting": "[3]; before use of TCS-containing toothpaste", "result": "0.03 to 2.7", "unit": "nM"}
    ]}
  ]
}
